“Also recorded” adds a separate entry of the source.
Columns and labels:
SOD1 variants [1] = assay: Plate-based and gel-based SOD1 enzymatic activity assays (results in words); assay type: biochemical, human
Method: (§1) Enzymatic activity of SOD1 variants were assessed using a gel-based assay with riboflavin and nitroblue tetrazolium (NBT) as previously described. […] The samples were mixed with native sample buffer (Bio-Rad) in a 1:1 ratio and were loaded into each well to a 12% polyacrylamide gel (Bio-Rad). The gel was stained in dark using 50 mM potassium phosphate (pH 7.8), 0.13 mg/mL of NBT, and 0.1 mg/mL of riboflavin for 45 min. The gel was exposed to light for with 1 μL/mL of N,N,N^′,N^′-tetramethylethylenediamine (TEMED) for 2 min. SOD1 activity can be seen as colorless bands as the SOD1 scavenges the superoxide that inhibits insoluble blue color formazan formation.
(§2) All samples were prepared as described in gel-based enzymatic activity assay section and were (10 μL) mixed with 160 μL of solution A (6,000 units/mL catalase, 10 mM hypoxanthine, and 5 mM XTT) and 160 μL of solution B (xanthine oxidase 16 mg/mL) in a flat-bottom 96-well plate and was monitored for absorbance at 490 nm for 30 min. All samples were analyzed in technical triplicate using slope function in Microsoft Excel.

SOD1 variants [2] = molecular target: T1, SOD1 variants (Homo sapiens, UniProt P00441, H47R); assay: as above; assay type: biochemical; conditions: plate-based and gel-based assays
T1 construct: made in house; host or cells: EGy118ΔSOD1 yeast, YEp351 expression vector
T1 sequence (P00441 2-154 H47R): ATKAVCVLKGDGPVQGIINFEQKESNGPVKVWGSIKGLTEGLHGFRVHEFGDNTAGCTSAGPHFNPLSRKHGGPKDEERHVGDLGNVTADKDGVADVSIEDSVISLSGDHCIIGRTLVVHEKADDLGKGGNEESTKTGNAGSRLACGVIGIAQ
Method: as §1, §2

For `[O-][S+]1CCCCS1` (stereo not drawn) [S-XL6, 1,2-dithiane-1-oxide], the Enzymatic activity (SOD1 variants [1]; cross-linked fALS SOD1 variants, summary table) was “Activity of cross-linked quaternary structures of fALS SOD1 variants are more comparable to uncross-linked wild-type SOD1”, the “enzymatic activity of SOD1^A4V, SOD1^G93A and SOD1^G85R after cross-linking” value (SOD1 variants [1]; plate-based and gel-based assays) was “levels comparable to that of wild-type SOD1; also recorded: increased to that of wild-type SOD1” and the “enzymatic activity of SOD1^H46R after cross-linking” value (SOD1 variants [2]) was “No change in activity; also recorded: did not affect”.

— PMC10826971, “Evaluating protein cross-linking as a therapeutic strategy to stabilize SOD1 variants in a mouse model of familial ALS” (PLOS Biology, 2024)
